According to patent US11536729B2, “Method of identifying novel protein aggregation inhibitors based on chemical kinetics” (Cambridge Enterprise Limited, priority 2016, dated 2022):
Entries after “also recorded” stand apart in the source; their conditions may differ. Read-outs that look alike come from different tables or passages of the source.

Assays:
[1] = tested on: SH-SY5Y human neuroblastoma cells; format: cell-based; conditions: 0.5 μM Aβ42, 10 μM bexarotene
Procedure: Aβ42 oligomers are known to be toxic to cells leading to apoptosis and to cellular death. […] SH-SY5Y human neuroblastoma cells were cultured under standard conditions, at 37° C. in a humidified incubator with 5% CO2. Cells were seeded at a density of 25,000 per well in a white-walled, clear-bottomed 96-well plate and cultured for 24 h in MEM/F12(1:1)/10% Fetal Bovine Serum (FBS) (Gibco). The culture medium was then replaced with pre-warmed phenol red free DMEM without FBS into which the peptide samples or NaPO4 buffer were diluted 1:1. […] The aggregation reaction was set up as above except for the buffer from which NaN3 was removed due to its toxicity. […] All the specified time points correspond to Aβ42 in the lag phase in order to monitor inhibition at the early stage of the aggregation. […] The cells were cultured in the presence of the peptides, buffer and media for further 24 h before the cytotoxic effect was measured.
Cell medium diluted with the same buffer that was used in these experiments was included in some wells in order to evaluate the intrinsic fluorescence of the media and bexarotene.
For the positive control, staurosporine (1 μM) was added to the cells for 2 hours. Caspase-3/7 activity was measured using the Apo-ONE Homogeneous Caspase-3/7 assay (Promega). The fluorogenic caspase-3/7 substrate, rhodamine 110 bis-(N-CBZ-L-aspartyl-L-glutamyl-L-valyl-aspartic acid amide) was diluted 1:100 in the lysis buffer provided and added to the cell medium at a 1:1 ratio. The fluorescence was measured at excitation 480 nm/emission 520 nm in an Optima FluoStar plate reader. In each of the used plates, the toxicity was assessed according to a negative and a positive control.
For comparative purposes between different plates, we normalized the fluorescence values using a parabolic equation (y=ax^b), which corresponds to the evolution of the oligomers as a function of time. Negative and positive controls were set to 1 and 10, respectively. […] Statistical analyses were performed using GraphPad prism 6.0. Results are expressed as mean±SEM.

[2] = tested on: C. elegans GMC101 (Aβ-worm); test: C. elegans motility assay (body bends), Aβ-worm model; format: in vivo, Caenorhabditis elegans
Procedure: Standard conditions were used for Caenorhabditis elegans propagation at 20° C. (53). Briefly, animals were synchronized by hypochlorite bleaching, hatched overnight in M9 buffer, and subsequently cultured on nematode growth medium (NGM, USP agar) plates seeded with the E. coli strain OP50. Saturated cultures of OP50 were grown by inoculating 50 mL of LB medium with OP50 and incubating the culture for 16 h at 37° C. NGM plates were seeded with bacteria by adding 350 μl of saturated OP50 to each plate and leaving the plates at room temperature for 2-3 days. On day 3 after synchronization, animals were placed on NGM plates containing 5-fluoro-2′deoxy-uridine (FUDR) ([…], unless stated otherwise) to inhibit growth of offspring.
The following strains were used: dvls100[unc-54p::A-beta-1-42::unc-54 3′-UTR+mtl-2p::GFP] (GMC101). mtl-2p::GFP produces constitutive expression of GFP in intestinal cells. unc-54p::A-beta-1-42 expresses full-length human Aβ42 peptide in bodywall muscle cells that aggregates in vivo. Shifting L4 or young adult animals from 20 C° to 25 C° causes paralysis dvls15[pPD30.38 (unc-54 vector)+mtl-2::GFP (pCL26)] (CL2122), control strain for GMC101 (57). Phenotype apparently WT. C. elegans var Bristol (N2). Generation time is about 3 days. Brood size is about 350. Isolated from mushroom compost near Bristol, England. […]
All populations were cultured at 20° C. and developmentally synchronized from a 4 h egg-lay. At 64-72 h post egg-lay (time zero) individuals were shifted to 23° C. or 25° C., and body movement assessed over time as indicated. At different ages, animals were washed out of the plates with M9 and spread over an un-seeded 6 cm plate, after which their movements were recorded at 30 fps using a home-made microscopic setup, at 0.75× magnification, for 30 s or 1 min. 200 animals were counted per experiment unless stated otherwise. […]
Videos were elaborated using ImageJ (National Institutes of Health, Bethesda, Md., USA), and body bends were quantified using the wrMTrck plug-in (http://www.phage.dk/plugins/wrmtrck.html), developed by Jesper Søndergaard Pedersen.

C=C(c1ccc(C(=O)O)cc1)c1cc2c(cc1C)C(C)(C)CCC2(C)C [bexarotene]
incubation time after which detectable toxic Aβ42 species are formed in presence of compound ([1]; 37° C.): 7 h | toxicity (caspase-3) of Aβ42 species in absence of bexarotene, higher than in its presence ([1]; aliquot after 0.3 h incubation): 65±5% | toxicity (caspase-3) of Aβ42 species in absence of bexarotene, higher than in its presence ([1]; aliquot after 4 h incubation): 65±5% | level of toxicity generated in the presence of bexarotene ([1]; aliquot after 7 h incubation): increased to a value similar to that observed in its absence | motility (frequency of body bends) of Aβ-worms ([2]; 10 μM, two bursts at L1 and L4 larval stages): maintained completely; also recorded: Complete recovery | motility of Aβ-worms, concentration dependence ([2]; 5 to 10 μM added at larval stages): concentration-dependent maintenance | effect on motility of Aβ-worms when added only at day 2 ([2]; added only at day 2): did not show any detectable effect
